Test results: patent US8470800B2, “Method of reducing intraocular pressure in humans” (Inotek Pharmaceuticals Corporation, priority 2009, dated 2013)

Tests used:
[1] = Clinical study: single topical ocular dose, intraocular pressure in adults with OHT or POAG; assay type: in vivo, human; conditions: for IOP difference from the placebo response: 2 hours postdose
Source text: The clinical study described herein is a multi-center, randomized, double-blind, placebo-controlled, dose-escalation study of a single topical ocular application of the study drug (i.e., Compound A or placebo) to the one study eye of adults with OHT or POAG. The “study eye” was defined as the eye with the higher mean IOP, recorded between 7:00 and 8:00 AM on the day prior to dosing (Day 0).
The adult subjects were sequentially assigned to 1 of 7 treatment groups.
Masked-intraocular pressures were determined in duplicate with a Goldmann tonometer following traditional corneal anesthesia. […] Subsequent bilateral external eye examinations and masked-IOP determinations were performed at 9:00 AM, 10:00 AM, 12:00 noon, and 2:00 PM (each ±5 minutes), corresponding to 1, 2, 4, and 6 hours post study drug application. In addition in the 700 mcg cohort an IOP determination was performed at 6:00 PM (18:00), corresponding to 10 hours post study drug application.
The study drug was only administered to one eye per subject (the study eye). Dosages ranged from 2.5 micrograms to 350 micrograms per 50 microliter drop, per respective treatment group. A board-certified ophthalmologist (or comparably trained designee) administered the study drug. Randomized enrollment of subjects into each successive treatment groups was predicated upon the review and approval of the safety data from the completed treatment groups by the Safety Research Committee, consisting of three qualified physicians (i.e., an internist, cardiologist, and ophthalmologist).

[2] = target: human A1 adenosine receptor (Homo sapiens (Human), UniProt P30542); test: Inhibition of forskolin-stimulated adenylyl cyclase activity via A1 receptor; assay type: biochemical; conditions: membranes of CHO cells stably transfected with human A1 receptor
Sequence of human A1 adenosine receptor (P30542 whole entry): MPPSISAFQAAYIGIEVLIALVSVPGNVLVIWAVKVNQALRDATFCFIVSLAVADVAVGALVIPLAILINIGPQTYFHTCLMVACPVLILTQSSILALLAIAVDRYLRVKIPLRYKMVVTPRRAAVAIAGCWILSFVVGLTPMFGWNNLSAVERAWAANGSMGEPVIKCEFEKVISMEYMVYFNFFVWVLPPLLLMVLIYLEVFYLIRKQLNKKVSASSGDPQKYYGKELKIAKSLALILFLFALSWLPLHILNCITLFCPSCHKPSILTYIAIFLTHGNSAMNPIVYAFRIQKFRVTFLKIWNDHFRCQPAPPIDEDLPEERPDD
Experimental: (§1) The A1 and A3 receptor-mediated inhibition of forskolin-stimulated adenylyl cyclase activity was tested in membranes prepared from CHO cells stably transfected with the human A1 and A3 adenosine receptors. The A2a and A2b receptor-mediated stimulation of basal cyclase activity was tested in membranes prepared from CHO cells stably transfected with the human A2a and […] adenosine receptors
(§2) Adenylyl Cyclase Inhibition Via Human Adenosine A1 and A3 Receptors

A2A adenosine receptor = A2A adenosine receptor (Homo sapiens (Human), UniProt P29274); test: Adenosine receptor binding selectivity A1 > A2A; conditions: ratio of Ki values
Sequence of A2A adenosine receptor (P29274 whole entry): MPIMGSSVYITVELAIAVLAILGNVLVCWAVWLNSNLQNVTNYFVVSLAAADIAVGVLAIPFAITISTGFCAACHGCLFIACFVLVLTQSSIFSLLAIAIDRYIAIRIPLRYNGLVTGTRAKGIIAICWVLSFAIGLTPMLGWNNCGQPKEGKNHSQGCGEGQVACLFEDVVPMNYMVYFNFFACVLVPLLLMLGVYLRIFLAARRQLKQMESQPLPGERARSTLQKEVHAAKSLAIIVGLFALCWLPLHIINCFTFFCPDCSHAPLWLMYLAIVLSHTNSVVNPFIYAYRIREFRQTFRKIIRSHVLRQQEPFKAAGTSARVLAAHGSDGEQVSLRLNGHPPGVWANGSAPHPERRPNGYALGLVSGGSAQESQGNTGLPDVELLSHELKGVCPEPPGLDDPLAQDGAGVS
Experimental: (§3) As used herein, the term “selective adenosine A1 agonist” means an A1 agonist that has a high affinity to the A1 receptor while simultaneously having a low affinity for the A2 and A3 adenosine receptors.
(§4) Membranes for radioligand binding experiments are prepared from fresh or frozen cells as described in Klotz et al., Naunyn-Schmiedeberg's Arch. […] The cell suspension is then homogenized in ice-cold hypotonic buffer (5 mM Tris/HCl, 2 mM EDTA, pH 7.4) and the homogenate is spun for 10 minutes (4° C.) at 1,000 g.
(§5) Nonspecific binding is determined in the presence of 100 μM R-PM and 1 mM theophylline, respectively. For details see Klotz et al., Naunyn-Schmiedeberg's Arch.

A3 adenosine receptor [3] = target: T1, A3 adenosine receptor (Homo sapiens (Human), UniProt P0DMS8); test: Adenosine receptor binding selectivity A1 > A3; conditions: ratio of Ki values
T1 sequence (P0DMS8 whole entry): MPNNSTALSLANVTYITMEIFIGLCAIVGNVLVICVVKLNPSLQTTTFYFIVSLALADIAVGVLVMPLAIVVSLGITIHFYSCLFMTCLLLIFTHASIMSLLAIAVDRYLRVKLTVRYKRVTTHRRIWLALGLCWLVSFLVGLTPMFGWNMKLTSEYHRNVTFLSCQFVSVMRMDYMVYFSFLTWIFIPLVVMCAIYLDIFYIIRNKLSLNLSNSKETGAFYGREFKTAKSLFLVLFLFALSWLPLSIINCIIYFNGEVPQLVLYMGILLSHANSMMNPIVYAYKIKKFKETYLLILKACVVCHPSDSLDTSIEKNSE
Experimental: as §3, §4, §5

A3 adenosine receptor [4] = target: T1, A3 adenosine receptor; test: Inhibition of forskolin-stimulated adenylyl cyclase activity via A3 receptor; assay type: biochemical; conditions: membranes of CHO cells stably transfected with human A3 receptor
Experimental: as §1, §2

Row | SMILES | EC50 [2] | A1 > A2A SELECTIVITY [KiA2(nm)/KiA1(nm)] (A2A adenosine receptor) | A1 > A3 SELECTIVITY [KiA3(nm)/KiA1(nm)] (A3 adenosine receptor [3]) | EC50 (A3 adenosine receptor [4]) | other results
1 | O=S(=O)([O-])OC[C@H]1O[C@@H](n2cnc3c(NC4CCCC4)ncnc32)[C@H](O)[C@@H]1O.[Na+] [Compound C, sodium ((2R,3S,4R,5R)-5-(6-(cyclopentylamino)-9H-purin-9-yl)-3,4-dihydroxytetrahydrofuran-2-yl)methyl sulfate] |  | 2250 | 251 |  | 
2 | O=[N+]([O-])OC[C@H]1O[C@@H](n2cnc3c(NC4CCOC4)ncnc32)[C@H](O)[C@@H]1O (stereo partly drawn) [Compound D, ((2R,3S,4R,5R)-3,4-dihydroxy-5-(6-(tetrahydrofuran-3-ylamino)-9H-purin-9-yl)tetrahydrofuran-2-yl)methyl nitrate] |  | >9434 | 202 |  | 
3 | O=[N+]([O-])OC[C@H]1O[C@@H](n2cnc3c(NC4CCCCC4)ncnc32)[C@H](O)[C@@H]1O [Compound E, ((2R,3S,4R,5R)-5-(6-(cyclohexylamino)-9H-purin-9-yl)-3,4-dihydroxytetrahydrofuran-2-yl)methyl nitrate] | 29 nM | 878 | 1098 | > 100000 nM | 
4 | O=S(=O)([O-])OC[C@H]1O[C@@H](n2cnc3c(NC4CCCCC4)nc(Cl)nc32)[C@H](O)[C@@H]1O.[Na+] [Compound G, sodium ((2R,3S,4R,5R)-5-(2-chloro-6-(cyclohexylamino)-9H-purin-9-yl)-3,4-dihydroxytetrahydrofuran-2-yl)methyl sulfate] | 19 nM | 200 | 130 | > 100000 nM | 

Second part, led by results:

Row | EC50 [2] | A1 > A2A SELECTIVITY [KiA2(nm)/KiA1(nm)] (A2A adenosine receptor) | A1 > A3 SELECTIVITY [KiA3(nm)/KiA1(nm)] (A3 adenosine receptor [3]) | SMILES | EC50 (A3 adenosine receptor [4]) | other results
5 | 17 nM |  |  | O=[N+]([O-])OC[C@H]1O[C@@H](n2cnc3c(NC4CCCC4)ncnc32)[C@H](O)[C@@H]1O [Compound A, ((2R,3S,4R,5R)-5-(6-(cyclopentylamino)-9H-purin-9-yl)-3,4-dihydroxytetrahydrofuran-2-yl)methyl nitrate] |  | IOP difference from the placebo response ([1]; 350 mcg treatment group): Statistically significant differences from the placebo response; duration of the decrease in IOP ([1]; 350 mcg treatment group, entire observation period): ~6 h; IOP difference from the placebo response ([1]; 700 mcg treatment group): Statistically significant differences from the placebo response; dose group with % of subjects achieving greatest IOP decrement (responder analysis) ([1]; across 7 dose groups): 350 µg; dose with largest mean and median decreases in IOP ([1]; across 7 dose groups 2.5-700 mcg): 350 µg; decrement in IOP from the Day 1 pre-dose baseline ([1]; single topical ocular dose 2.5-700 mcg, study eye, OHT or POAG): Dose-related decrement in IOP; responder analysis: subjects with categorical mean IOP decreases from baseline of ≧10%, ≧15% or ≧20% ([1]; throughout the observation period (~6 hrs)): showed a dose-response; time post-dose of largest difference in IOP between drug-treated and placebo-treated eyes ([1]; topical ocular doses, human subjects): approximately 2 hours
6 |  | 3945 | 260 | O=[N+]([O-])OC[C@H]1O[C@@H](n2cnc3c(NC4CC5CCC4C5)ncnc32)[C@H](O)[C@@H]1O (stereo partly drawn) [Compound F, ((2R,3S,4R,5R)-5-(6-(bicycle-[2.2.1]-heptan-2-ylamino)-9H-purin-9-yl)-3,4-dihydroxytetrahydrofuran-2-yl)methyl nitrate] |  | 
